The values that follow come from patent publication US9611283B1, “Methods for inhibiting cell proliferation in ALK-driven cancers” (ARIAD Pharmaceuticals, Inc., priority 2013, dated 2017).

For data set [1] the following is noted: clinical, at MTD; cited from earlier work.
The test system of another data set is Parental Ba/F3 cells. Nature of the data set: In vitro viability / Ba/F3 cellular proliferation assay, parental cells. Format: cell-based. Conditions: Mus musculus; for IC50: BaF3.
In data set [2] the test system is Ba/F3 EML4-ALK G1269S tumors. Briefly: In vivo efficacy, xenograft of Ba/F3 cells expressing EML4-ALK G1269S. More on the design: species or system SCID Beige mice. Conditions: 50 and 75 mg/kg, once daily oral gavage.
The test system of a further data set is EML4-ALK S1206R tumors. Nature of the data set: Pharmacodynamics: p-ALK in EML4-ALK S1206R tumors in vivo. More on the design: species or system mice. Conditions: sustained for 24 hrs after single dose of 50 mg/kg. Here is the method: Calibration standards were prepared in blank mouse plasma.
Data set [3] relates to Ba/F3 EML4-ALK S1206R tumors. Briefly: In vivo efficacy, xenograft of Ba/F3 cells expressing EML4-ALK S1206R. More on the design: species or system SCID Beige mice. The conditions noted are these: 75 mg/kg, once daily oral gavage.
Data set [4] relates to Ba/F3 cells expressing native EML4-ALK. Briefly: Accelerated in vitro mutagenesis screen.
For data set [5], the target named is Ba/F3 cells expressing EML4-ALK 1151 T insertion (Homo sapiens, UniProt Q9UM73, DUP1151-1151). Nature of the data set: Ba/F3 cellular proliferation assay, EML4-ALK 1151 T insertion. Conditions: Table 2.
[6] abbreviates: Table 2, Ba/F3 parental, read-out: IC50.

Where two headings read alike, the source gives them in different places.

`C[C@@H](Oc1cc(-c2cnn(C3CCNCC3)c2)cnc1N)c1c(Cl)ccc(F)c1Cl` [crizotinib]: in data set [1], the “median Ctrough” value was about 225 ng/mL. Further, the inhibition at […] in the data set with Parental Ba/F3 cells (BaF3, read-out: inhibition of parental Ba/F3 cell proliferation) is over 90%. The IC50 in the data set with Parental Ba/F3 cells (setting [6]) amounted to 2.06 ± 0.373 µM.

On to `COc1cc(N2CCC(N3CCN(C)CC3)CC2)ccc1Nc1ncc(Cl)c(Nc2ccccc2P(C)(C)=O)n1` [Compound 1], for which the entries for the “tumor response in xenograft” value in data set [2] and in data set [3] were “complete tumor regression” and “tumor growth inhibition”, respectively. For the same compound, the p-ALK inhibition with EML4-ALK S1206R tumors is given as 40-60%. Also, the mutations recovered entry in data set [4] (at 500 nM (S1206R)) was “only one”. Also, in data set [4] (mutagenesis screen), the “concentration that completely suppressed the emergence of resistance” value is 1000 nM. Also, in data set [4] (number of different mutants), the “mutants recovered in the screen” value is given as “ten”. In addition, the IC50 in the data set with Parental Ba/F3 cells (Table 1, Parental Ba/F3 (IL-3), 72 h, n = 5, read-out: IC50s) amounted to 2.19 ± 0.41 µM; in the data set on Parental Ba/F3 cells (setting [6]), 4.58 ± 1.55 µM.

Regarding `CCc1cc2c(cc1N1CCC(N3CCOCC3)CC1)C(C)(C)c1[nH]c3cc(C#N)ccc3c1C2=O` [CH5424802], in the data set with Parental Ba/F3 cells (setting [6]), the IC50 is over 10 µM.

Turning to `COc1cc(N2CCC(N3CCN(C)CC3)CC2)ccc1Nc1ncnc(Nc2ccccc2S(=O)(=O)C(C)C)n1` [ASP3026], the IC50 in data set [5] is 5.94 ± 2.28 µM; with Parental Ba/F3 cells (setting [6]) it was over 10 µM.
